Measurements reported in patent publication US10875867B2, “Cyclic ether derivatives of pyrazolo[1,5-a]pyrimidine-3-carboxyamide” (Boehringer Ingelheim International GmbH, priority 2015, dated 2020).

Legend:
PDE 2A = PDE 2A (Homo sapiens (Human), UniProt O00408); test: Phosphodiesterase (PDE) 2A assay with fluorescent substrate (IMAP, fluorescence polarization); type: biochemical; settings: labeled cAMP 30 nM, read-out: PDE2 IC50
Protocol: (§1) The IMAP system (Molecular Device) using fluorescence polarization (FP) as detection principle was used to measure enzyme activity. A fluorescent labeled cAMP was used as substrate for the reaction, generating a labeled AMP. The fluorescent AMP binds specifically to the large M(III)-based nano-particles which reduces the rotational speed of the substrate and thus increases its polarization. Detailed Method: The inhibition of PDE 2A or 10 enzyme activity was assessed using IMAP-Phosphodiesterase-cAMP fluorescence labeled substrate (Molecular Devices, Order No. R7506), IMAP TR-FRET screening express (Molecular Devices, Order No. R8160, the TR-FRET component will not be used) and PDE 2A or PDE10 protein expressed upon baculovirus infection in SF9 cells. […] The cells were collected by centrifugation and the pellet frozen in liquid nitrogen before it was resuspended in PBS containing 1% Triton X-100 and protease inhibitors. After 45 min incubation on ice, the cell debris was removed by centrifugation (13.000 rpm, 30 min). […] All reactions were performed in 384 well plates, Perkin Elmer black optiplates and IMAP reaction buffer with 0.1% Tween20 (kit component) Compounds were serial diluted in DMSO. […] Reaction is stopped by adding of 60 μl binding buffer for FP/cAMP (kit component).

PDE10 = PDE10 (Homo sapiens (Human), UniProt Q9Y233); test: Phosphodiesterase (PDE) 10 assay with fluorescent substrate (IMAP, fluorescence polarization); type: biochemical; settings: labeled cAMP 30 nM
Protocol: as §1

Sequence of PDE10 (Q9Y233 whole entry): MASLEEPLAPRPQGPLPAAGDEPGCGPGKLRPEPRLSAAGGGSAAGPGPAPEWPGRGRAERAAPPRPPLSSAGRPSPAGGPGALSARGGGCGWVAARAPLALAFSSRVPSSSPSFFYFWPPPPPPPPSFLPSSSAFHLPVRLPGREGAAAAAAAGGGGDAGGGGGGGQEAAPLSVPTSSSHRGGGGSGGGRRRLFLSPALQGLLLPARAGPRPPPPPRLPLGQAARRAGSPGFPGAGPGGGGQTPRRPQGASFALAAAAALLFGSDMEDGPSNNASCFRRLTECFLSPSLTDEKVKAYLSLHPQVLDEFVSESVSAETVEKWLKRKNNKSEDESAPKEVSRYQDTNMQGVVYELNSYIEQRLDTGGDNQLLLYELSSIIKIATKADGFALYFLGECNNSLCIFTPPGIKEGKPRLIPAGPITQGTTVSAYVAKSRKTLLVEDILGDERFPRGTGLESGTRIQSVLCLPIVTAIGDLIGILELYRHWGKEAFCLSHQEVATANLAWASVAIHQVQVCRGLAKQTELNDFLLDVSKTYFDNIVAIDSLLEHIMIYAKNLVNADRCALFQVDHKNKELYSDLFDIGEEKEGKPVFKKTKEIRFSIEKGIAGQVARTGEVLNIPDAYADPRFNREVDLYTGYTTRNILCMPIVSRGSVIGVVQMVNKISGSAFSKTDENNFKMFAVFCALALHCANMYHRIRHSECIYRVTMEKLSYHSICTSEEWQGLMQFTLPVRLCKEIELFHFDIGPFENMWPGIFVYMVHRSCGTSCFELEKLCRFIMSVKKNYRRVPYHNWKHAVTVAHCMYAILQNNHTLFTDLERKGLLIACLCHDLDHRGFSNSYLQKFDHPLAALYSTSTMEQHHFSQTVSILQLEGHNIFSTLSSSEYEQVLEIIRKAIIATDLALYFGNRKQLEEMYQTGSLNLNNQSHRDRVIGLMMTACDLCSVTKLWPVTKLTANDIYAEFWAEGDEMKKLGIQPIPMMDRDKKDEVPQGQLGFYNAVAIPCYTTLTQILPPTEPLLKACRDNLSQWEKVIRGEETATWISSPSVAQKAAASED
Sequence of PDE 2A (O00408 whole entry, species assumed): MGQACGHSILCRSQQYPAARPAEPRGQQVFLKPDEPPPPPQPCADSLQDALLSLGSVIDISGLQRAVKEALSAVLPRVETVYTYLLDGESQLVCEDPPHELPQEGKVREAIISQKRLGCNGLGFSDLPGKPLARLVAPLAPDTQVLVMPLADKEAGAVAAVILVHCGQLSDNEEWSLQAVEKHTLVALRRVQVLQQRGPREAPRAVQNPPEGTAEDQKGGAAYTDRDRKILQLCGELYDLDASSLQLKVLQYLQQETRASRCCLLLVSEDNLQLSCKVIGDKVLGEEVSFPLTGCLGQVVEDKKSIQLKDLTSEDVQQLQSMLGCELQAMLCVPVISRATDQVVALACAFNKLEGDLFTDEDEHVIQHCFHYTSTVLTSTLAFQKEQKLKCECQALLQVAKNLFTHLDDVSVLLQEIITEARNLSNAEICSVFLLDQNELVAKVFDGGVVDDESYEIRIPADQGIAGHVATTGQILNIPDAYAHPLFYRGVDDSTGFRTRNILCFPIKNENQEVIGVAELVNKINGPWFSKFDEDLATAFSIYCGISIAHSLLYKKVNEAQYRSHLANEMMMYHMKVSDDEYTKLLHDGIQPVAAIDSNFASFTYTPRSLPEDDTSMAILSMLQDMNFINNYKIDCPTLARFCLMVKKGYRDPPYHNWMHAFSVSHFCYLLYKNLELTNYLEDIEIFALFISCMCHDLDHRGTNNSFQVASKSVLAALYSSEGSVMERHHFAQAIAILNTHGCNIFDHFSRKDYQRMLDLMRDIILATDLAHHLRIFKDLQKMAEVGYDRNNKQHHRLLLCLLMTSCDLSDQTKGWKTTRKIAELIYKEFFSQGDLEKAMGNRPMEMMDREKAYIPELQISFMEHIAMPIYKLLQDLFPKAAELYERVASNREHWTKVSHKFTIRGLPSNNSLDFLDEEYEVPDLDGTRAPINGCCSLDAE

IC50 (PDE 2A) [nM]	IC50 (PDE10) [nM]	SMILES
124	> 10000	Cc1nn2cc(C3CC3)cnc2c1C(=O)NC1(c2ccc(C(F)(F)F)cn2)CCOCC1O (racemic) [Example 63]
22	> 10000	O=C(NC1(c2ccc(C(F)(F)F)cc2)CCOCC1O)c1cnn2cc(C3CC3)cnc12 (stereo not shown) [Example 60]
